The term Ki denotes the equilibrium dissociation constant of an inhibitor or competing ligand from its target.

This note sets out measurements from patent US10287269B2, “Pyrazolyl pyrimidinone compounds as PDE2 inhibitors” (Merck Sharp & Dohme Corp., priority 2015, dated 2019).

This assay has as its target T1, Rhesus PDE2A3 (Macaca mulatta, UniProt B3VTJ2).
T1 construct: made in house; host or cells: AD293 cells, transient transfection, pcDNA3.3-TOPO; lysate supernatant used as enzyme
T1 sequence (B3VTJ2 1-941): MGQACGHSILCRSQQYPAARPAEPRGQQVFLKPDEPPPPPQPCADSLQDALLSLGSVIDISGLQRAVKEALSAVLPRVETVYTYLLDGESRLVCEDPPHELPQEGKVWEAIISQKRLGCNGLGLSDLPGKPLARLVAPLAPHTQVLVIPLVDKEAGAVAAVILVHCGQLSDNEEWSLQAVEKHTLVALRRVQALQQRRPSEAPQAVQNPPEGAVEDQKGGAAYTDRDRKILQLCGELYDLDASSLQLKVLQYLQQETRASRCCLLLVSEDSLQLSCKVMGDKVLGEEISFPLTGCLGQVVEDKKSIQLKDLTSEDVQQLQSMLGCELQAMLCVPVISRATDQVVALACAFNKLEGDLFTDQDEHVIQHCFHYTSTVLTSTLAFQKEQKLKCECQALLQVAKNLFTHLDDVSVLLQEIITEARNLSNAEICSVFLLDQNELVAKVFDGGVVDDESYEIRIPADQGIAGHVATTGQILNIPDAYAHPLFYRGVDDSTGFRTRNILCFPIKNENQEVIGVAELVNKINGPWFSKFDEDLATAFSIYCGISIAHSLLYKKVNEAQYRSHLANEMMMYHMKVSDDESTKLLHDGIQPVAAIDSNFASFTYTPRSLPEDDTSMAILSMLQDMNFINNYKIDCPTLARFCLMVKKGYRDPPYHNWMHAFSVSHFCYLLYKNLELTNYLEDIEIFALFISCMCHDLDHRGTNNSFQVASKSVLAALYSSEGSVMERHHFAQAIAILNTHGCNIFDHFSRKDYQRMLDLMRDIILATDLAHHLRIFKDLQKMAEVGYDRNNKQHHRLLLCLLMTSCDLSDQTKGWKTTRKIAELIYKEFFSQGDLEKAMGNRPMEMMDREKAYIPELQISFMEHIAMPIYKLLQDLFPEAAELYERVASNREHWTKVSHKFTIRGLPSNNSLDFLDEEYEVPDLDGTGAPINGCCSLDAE
The assay can be described thus: PDE2 fluorescence polarization (IMAP FP) inhibition assay, rhesus enzyme. It is filed as biochemical, rhesus macaque. An outline of the steps: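 Lysate of AD293 cells transiently expressing rhesus PDE2A3, diluted for ~20% substrate conversion, with 50 nM FAM-cAMP and 1 uM cGMP activator in pH 7.2 Tris/MgCl2 buffer, 60 min at room temperature.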
In general terms: In fluorescence polarisation assays a small probe gives low polarisation when free and higher when bound to something large.

The mark [1] stands for this setting: Lab A, read-out: Rhesus PDE2 Ki (nM) Lab A.
Setting [2] is: Lab B, read-out: Rhesus PDE2 Ki (nM) Lab B.

Each structure is given as a SMILES string. Where two headings read alike, the source gives them in different places.

For `CC(c1ccc(C(F)(F)F)cc1F)n1cc(-c2cc(=O)[nH]c(C3CC3)n2)cn1` (stereo not shown) [Example 10], the Ki under setting [1] stood at 25 nM.
As for `Cc1nc(-c2cnn(Cc3ccc(OC(F)(F)F)cc3)c2)cc(=O)[nH]1` [Example 29, 2-Methyl-6-(1-(4-(trifluoromethoxy)benzyl)-1H-pyrazol-4-yl)pyrimidin-4(3H)-one], the Ki under setting [2] is 1210 nM.
Same read-out and setting: for `Cc1nc(-n2cc(Cc3ccc(OC(F)(F)F)cc3)cn2)cc(=O)[nH]1` [Example 30, 2-Methyl-6-(4-(4-(trifluoromethoxy)benzyl)-1H-pyrazol-1-yl)pyrimidin-4(3H)-one] the value was 2940 nM.
Consider `CCC(c1ccc(C(F)(F)F)cc1F)n1cc(-c2cc(=O)[nH]c(C)n2)cn1` (stereo not shown) [Example 33, 6-(1-(1-(2-fluoro-4-(trifluoromethyl)phenyl)propyl)-1H-pyrazol-4-yl)-2-methylpyrimidin-4(3H)-one], for which the Ki under setting [1] was 36.6 nM and the Ki under setting [2] is 19.7 nM.
For `Cc1nc(-c2cnn(C(c3ccc(C(F)(F)F)cc3F)C(C)C)c2)cc(=O)[nH]1` (stereo not shown) [Example 34, 6-(1-(1-(2-fluoro-4-(trifluoromethyl)phenyl)-2-methylpropyl)-1H-pyrazol-4-yl)-2-methylpynmidin-4(3H)-one], in that order: 54.6 nM and 26.9 nM.
For `CC(c1ccc(C(F)(F)F)cc1F)n1cc(-c2cc(=O)[nH]c(Cc3ccccc3)n2)cn1` (stereo not shown) [Example 35, 2-benzyl-6-(1-(1-(2-fluoro-4-(trifluoromethyl)phenyl)ethyl)-1H-pyrazol-4-yl)pyrimidin-4(3H)-one], in that order: 38.3 nM and 17.3 nM.
Regarding `CCc1nc(-c2cnn(C(C)c3ccc(C(F)(F)F)cc3F)c2)cc(=O)[nH]1` (stereo not shown) [Example 36, 2-ethyl-6-(1-(1-(2-fluoro-4-(trifluoromethyl)phenyl)ethyl)-1H-pyrazol-4-yl)pyrimidin-4(3H)-one], the Ki under setting [1] was determined as 25.7 nM.
The same measure, in the same setting: the result for `Cc1nc(-c2cnn(C3(c4ccc(C(F)(F)F)cc4F)CCC3)c2)cc(=O)[nH]1` [Example 37, 6-(1-(1-(2-fluoro-4-(trifluoromethyl)phenyl)cyclobutyl)-1H-pyrazol-4-yl)-2-methylpyrimidin-4(3H)-one] reads 13.1 nM.
As to `Cc1nc(-n2cc(C(C)c3ccc(C4CC4)cc3)cn2)cc(=O)[nH]1` (stereo not shown) [Example 39, 6-(4-(1-(4-cyclopropylphenyl)ethyl)-1H-pyrazol-1-yl)-2-methylpyrimidin-4(3H)-one], the Ki under setting [2] worked out at 99.9 nM.
Still for that read-out and setting: the result for `Cc1nc(-n2cc(C(C)c3ccc(C4(C)CC4)cc3)cn2)cc(=O)[nH]1` (stereo not shown) [Example 40, 2-methyl-6-(4-(1-(4-(1-methylcyclopropyl)phenyl)ethyl)-1H-pyrazol-1-yl)pyrimidin-4(3H)-one] reads 211 nM.
The same measure, in the same setting: the result for `Cc1nc(-n2cc(Cc3ccc(C(F)(F)F)cc3)cn2)cc(=O)[nH]1` [Example 48, 2-methyl-6-(4-(4-(trifluoromethyl)benzyl)-1H-pyrazol-1-yl)pyrimidin-4(3H)-one] reads 333 nM.
Take `Cc1nc(-c2cn(C(C)c3ccc(C(F)(F)F)cc3)nc2C)cc(=O)[nH]1` (stereo not shown) [Example 80, 2-methyl-6-(3-methyl-1-(1-(4-(trifluoromethyl)phenyl)ethyl)-1H-pyrazol-4-yl)pyrimidin-4(3H)-one]: under setting [2], the Ki was determined as 194 nM.
Same read-out and setting: for `Cc1nc(-c2cnn(C(C)c3ccc(C(F)(F)F)cc3)c2)cc(=O)[nH]1` (stereo not shown) [Example 126, 2-methyl-6-(1-(1-(4-(trifluoromethyl)phenyl)ethyl)-1H-pyrazol-4-yl)pyrimidin-4(3H)-one] the value was 306 nM.
Same read-out and setting: the result for `CCC(c1ccc(C(F)(F)F)cc1)c1cnn(-c2cc(=O)[nH]c(C)n2)c1` (stereo not shown) [Example 129, 2-methyl-6-(4-(1-(4-(trifluoromethyl)phenyl)propyl)-1H-pyrazol-1-yl)pyrimidin-4(3H)-one] reads 184 nM; that for `Cc1nc(-n2cc(C(c3ccc(C(F)(F)F)cc3)C(C)C)cn2)cc(=O)[nH]1` (stereo not shown) [Example 130], 138 nM.
For `COc1ccc(Cc2nc(-n3cc(C(C)c4ccc(C(F)(F)F)cc4)cn3)cc(=O)[nH]2)cc1OC` (stereo not shown) [Example 137, 2-(3,4-dimethoxybenzyl)-6-(4-(1-(4-(trifluoromethyl)phenyl)ethyl)-1H-pyrazol-1-yl)pyrimidin-4(3H)-one], the Ki turned out to be 1.3 nM under setting [1] and 0.6 nM under setting [2].
For the compound `Cc1ccc(C(C)n2cc(-c3cc(=O)[nH]c(C)n3)cn2)cc1` (stereo not shown) [Example 153, 2-methyl-6-(1-(1-(p-tolyl)ethyl)-1H-pyrazol-4-yl)pyrimidin-4(3H)-one], the Ki under setting [2] turned out to be 825 nM.
Take `CCCC(c1ccc(C(F)(F)F)cc1)n1cc(-c2cc(=O)[nH]c(C)n2)cn1` (stereo not shown) [Example 154, 2-methyl-6-(1-(1-(4-(trifluoromethyl)phenyl)butyl)-1H-pyrazol-4-yl)pynmidin-4(3H)-one]: under setting [2], the Ki amounted to 244 nM.
